Test results as given in patent EP0194158A2, “Anti-nicotine and anti-cotinine antibodies (monoclonal and other), and their uses in nicotine and cotinine assays” (Baylor College of Medicine, priority 1985, dated 1986).
Where two headings read alike, the source gives them in different places.

Columns and labels:
[1] = biological target: monoclonal antibody Anti-cotinine 305E5; assay: sandwich ELISA, inhibition of binding of monoclonal antibody to solid phase hapten (specificity); parameters: species or system mouse
Excerpt: (§1) Control values were less than 0.05 absorbance unit.

[2] = biological target: monoclonal antibody Anti-nicotine 402C10; assay: as above; parameters: species or system mouse
Excerpt: as §1

[3] = biological target: monoclonal antibody Anti-cotinine 305E5, isotype IgG2bk; assay: binding affinity constant K (method of R. Muller); parameters: species or system mouse; details: value is K multiplied by 10^-8
[4] = biological target: monoclonal antibody Anti-cotinine 206F8, isotype IgAlambda; assay: binding affinity constant K (method of R. Muller); parameters: species or system mouse; details: value is K multiplied by 10^-8
[5] = biological target: monoclonal antibody Anti-cotinine 308C11, isotype IgG1k; assay: binding affinity constant K (method of R. Muller); parameters: species or system mouse; details: value is K multiplied by 10^-8
[6] = biological target: monoclonal antibody Anti-cotinine 309G5, isotype IgG1k; assay: binding affinity constant K (method of R. Muller); parameters: species or system mouse; details: value is K multiplied by 10^-8
[7] = test system: the 4 anticotinine antibodies (McAb); assay: sandwich ELISA, inhibition by homologous hapten, all anti-cotinine McAb; type: binding, mouse; details: range over the 4 antibodies; each McAb diluted to give A490 1.0-1.2 without inhibitor
Description: as §1
Only 0.02 ng cotinine inhibited by 15%.

[8] = test system: the 6 cotinine antisera (rabbit); assay: ELISA with rabbit antisera, no second antibody; type: binding; details: range over the 6 antisera
Description: In these assays, no second antibody is required, because all rabbit IgG binds HRP-SpA (J.W. Goding, 20 J. Immunol. Methods 241 (1978)).

[9] = test system: Monoclonal Antibody 206F8 (anti-cotinine); assay: Fluorescent (fluorometric) ELISA; type: binding, mouse; details: nanograms of cotinine inhibitor required for 50% inhibition
Description: (§2) b. Fluorometric ELISA: The wells of polystyrene microtiter plates (Immulon 2; Dynatech Laboratories, Alexandria, VA) were coated respectively with 0.004 and 0.016 ug of polylysine-cotinine and polylysine-nicotine conjugate (0.1 ml) in 3 mM phosphate buffer, and incubated overnight at 4°C, pH 6.3. After aspiration, the wells were blocked with 0.2 ml casein buffer (0.01M Tris-buffered saline, pH 7.6., containing 0.01M EDTA and 0.2% vitamin-free casein (Nutritional Biochemicals, Cleveland, OH)) for 1 hour at room temperature, and then washed once with 0.2 ml of the same buffer and again aspirated. Assays were performed in 0.1 ml total volume per well using 0.050 ml diluted ascites (0.025 ml sample), and 0.025 ml nicotine or cotinine. Plates were incubated overnight at 4°C, washed three times with 0.2 ml casein buffer and then 0.1 ml biotin conjugated sheep anti-mouse IgG (Cooper Biomedical, Malvern, PA) diluted 1/250 with casein buffer was added. After incubation for 3 hours at room temperature, the plates were washed three times with 0.2 ml casein buffer, and streptavidin (0.5 ug) was added to each well, incubated for 1 hour at room temperature and washed as before. 0.1 ml of biotinylated alkaline phosphatase (Zymed, South San Francisco, CA) diluted 1/200 was added to each well, the plates were incubated for 1 hour at room temperature, washed with 0.2 ml PBS containing 0.05% Tween-20, and then washed three times with 0.2 ml of 0.01 M Tris-buffered saline, pH 7.6. 0.1 ml of substrate was added containing 2.5 mM 4-methylumbelliferyl phosphate dissolved in buffer containing diethanolamine (20% v/v) pH 10, 1 mM MgClz, and 9 mM levamisol. Fluorescence was measured with a Microfluor fluorometer (Dynatech Laboratories) at an excitation wavelength of 365 nm and emission wavelength of 450 nm. The plates were read right after substrate was added and again at 30 minute intervals. (Plates should be stored in the dark).

[10] = test system: Monoclonal Antibody 305E5 (anti-cotinine); assay: Fluorescent (fluorometric) ELISA; type: binding, mouse; details: nanograms of cotinine inhibitor required for 50% inhibition
Description: as §2

[11] = test system: Monoclonal Antibody 308C11 (anti-cotinine); assay: Fluorescent (fluorometric) ELISA; type: binding, mouse; details: nanograms of cotinine inhibitor required for 50% inhibition
Description: as §2

[12] = test system: Monoclonal Antibody 309G5 (anti-cotinine); assay: Fluorescent (fluorometric) ELISA; type: binding, mouse; details: nanograms of cotinine inhibitor required for 50% inhibition
Description: as §2

[13] = test system: Rabbit Antibody 481D (anti-cotinine); assay: Fluorescent (fluorometric) ELISA; type: binding; details: nanograms of cotinine inhibitor required for 50% inhibition
[14] = test system: Rabbit Antibody 113D (anti-cotinine); assay: Fluorescent (fluorometric) ELISA; type: binding; details: nanograms of cotinine inhibitor required for 50% inhibition
Description: as §2

[15] = test system: Rabbit Antibody 494D (anti-cotinine); assay: Fluorescent (fluorometric) ELISA; type: binding; details: nanograms of cotinine inhibitor required for 50% inhibition
Description: as §2

[16] = test system: Rabbit Antibody 495D (anti-cotinine); assay: Fluorescent (fluorometric) ELISA; type: binding; details: nanograms of cotinine inhibitor required for 50% inhibition
Description: as §2

[17] = test system: Rabbit Antibody 482D (anti-cotinine); assay: Fluorescent (fluorometric) ELISA; type: binding; details: nanograms of cotinine inhibitor required for 50% inhibition
[18] = biological target: monoclonal antibody Anti-nicotine 203G3, isotype IgMlambda; details: read-out: K; binding affinity constant; value is K multiplied by 10^-8
Description: (§3) The binding affinity constant (K; an indication of binding strength), was measured by the method described in R. Muller, 34 J. Immunol. Methods 345 (i980). The concentration of antibody in the ascites fluid was also measured by a method described in R. Muller, id.

[19] = biological target: monoclonal antibody Anti-nicotine 301C4, isotype IgG1lambda; details: read-out: K; binding affinity constant; value is K multiplied by 10^-8
Description: as §3

[20] = biological target: monoclonal antibody Anti-nicotine 302A12, isotype IgG1k; details: read-out: K; binding affinity constant; value is K multiplied by 10^-8
Description: as §3

[21] = biological target: monoclonal antibody Anti-nicotine 302G3, isotype IgG1lambda; details: read-out: K; binding affinity constant; value is K multiplied by 10^-8
Description: as §3

[22] = biological target: monoclonal antibody Anti-nicotine 303C10, isotype IgG2k; details: read-out: K; binding affinity constant; value is K multiplied by 10^-8
Description: as §3

[23] = biological target: monoclonal antibody Anti-nicotine 303C5, isotype IgG1lambda; details: read-out: K; binding affinity constant; value is K multiplied by 10^-8
Description: as §3

[24] = biological target: monoclonal antibody Anti-nicotine 304A4, isotype IgG1k; details: read-out: K; binding affinity constant; value is K multiplied by 10^-8
Description: as §3

[25] = biological target: monoclonal antibody Anti-nicotine 304A7, isotype IgG1lambda; details: read-out: K; binding affinity constant; value is K multiplied by 10^-8
Description: as §3

[26] = biological target: monoclonal antibody Anti-nicotine 402C10, isotype IgG2ak; details: read-out: K; binding affinity constant; value is K multiplied by 10^-8
Description: as §3

[27] = test system: the 9 antinicotine antibodies (McAb)
Description: The specificity of two of the antibodies (anti-nicotine 402Cl0 and anti-cotinine 305E5) was analyzed,. using a modification of the sandwich ELISA technique, which technique is described in detail below. In essence, specificity was determined by discerning how much structually related substance need be added to inhibit binding of monoclonal antibody to solid phase hapten by 50%. The assays were carried out in wells coated with 0.012 ug nicotine- or cotinine-polylysine conjugate, and with anti-nicotine and anti-cotinine diluted 1:729,000.
The modification involved use of 0.01 m1 of serially diluted standard nicotine or cotinine, (known amounts of inhibitors to assess antibody specificity), or test samples (eg. saliva) added to 0.04 ml casein buffer before its incubation with monoclonal antibodies. Maximum A490 values (i.e., maximum antibody binding) were determined using casein buffer (0.01 ml) in place of inhibitor. […] Control values were less than 0.05 absorbance unit. […]
After the preparation, to determine McAb binding, 0.05 ml diluted ascites fluid was added to 0.05 ml casein buffer and the plates were incubated overnight at 4°C. […] Color development was stopped by addition of 0.05 ml 4N sulfuric acid, and the A490 nm values were measured in the ELISA reader.

[28] = test system: single rabbit antinicotine serum
Description: Also developed were similar ELISAs using rabbit antisera, that being prepared as described in J.J. Langone et al., Biochemistry (1973) supra; J.J. Langone, H. Van Vunakis, Methods in Enzymology (1982) supra. In these assays, no second antibody is required, because all rabbit IgG binds HRP-SpA (J.W. Goding, 20 J. Immunol. Methods 241 (1978)).

[29] = wells coated with 0.012 ug cotinine-polylysine conjugate, anti-cotinine diluted 1:729,000, total volume 0.1 ml
[30] = wells coated with 0.012 ug nicotine-polylysine conjugate, anti-nicotine diluted 1:729,000, total volume 0.1 ml
[31] = at 700 ng, the highest amount printed in the cell

CN1CCCC1CCO (stereo not drawn) [1-methyl-2-pyrrolidine ethanol]
Nanograms required for 50% inhibition [1, 29]: 6,950 Nanograms | Nanograms required for 50% inhibition [2, 30]: 5.4 Nanograms

CN1CCCC1c1cccnc1N (stereo not drawn) [2-aminonicotine]
Nanograms required for 50% inhibition [1, 29]: 1,700 Nanograms | Nanograms required for 50% inhibition [2, 30]: 14.0 Nanograms

CN1CCCC1c1ccc(N)nc1 (stereo not drawn) [6-aminonicotine]
Nanograms required for 50% inhibition [1, 29]: 8,500 Nanograms | Nanograms required for 50% inhibition [2, 30]: 35.0 Nanograms

CN1CCCC1c1ccc(O)nc1 (stereo not drawn) [6-hydroxynicotine]
Nanograms required for 50% inhibition [1, 29]: 330 Nanograms | times more required for 50% inhibition than (S)-(-)-nicotine ([2]; ratio to the naturally occurring isomer): 5 fold | Nanograms required for 50% inhibition [2, 30]: 1.3 Nanograms

c1cncc([C@@H]2CCCN2)c1 [(-)-nornicotine]
Nanograms required for 50% inhibition [1]: 50.0 Nanograms | Nanograms required for 50% inhibition [2]: 95.0 Nanograms

CN1CCC[C@@H]1c1cccnc1 [(R)-(+)-nicotine]
Nanograms required for 50% inhibition [1]: 320 Nanograms | Nanograms required for 50% inhibition [2]: 6.4 Nanograms | times more required for 50% inhibition than (S)-(-)-nicotine [2]: Twenty-five

CN1C(=O)CC[C@H]1c1cccnc1 [(S)-(-)-cotinine]
Kd [3]: 1.76 nM | Kd [4]: 5.41 nM | Kd [5]: 3.21 nM | Kd [6]: 1.32 nM | inhibition ([1]; 0.02 ng cotinine): 15% | Nanograms required for 50% inhibition [1, 29]: 0.12 Nanograms | Nanograms required for 50% inhibition [2, 30]: 1,000 Nanograms | 50% inhibition [7]: 0.038 to 0.12 ng | 50% inhibition values [8]: 0.3 to 1.2 ng | I 50% [9]: 0.255 nanograms | I 50% [10]: 0.024 nanograms | I 50% [11]: 0.033 nanograms | I 50% [12]: 0.015 nanograms | I 50% [13]: 0.215 nanograms | I 50% [14]: 0.045 nanograms | I 50% [15]: 0.075 nanograms | I 50% [16]: 0.310 nanograms | I 50% [17]: 0.025 nanograms

CN1CCC[C@H]1c1cccnc1 [(S)-(-)-nicotine]
Kd [18]: 20.8 nM | Kd [19]: 9.71 nM | Kd [20]: 8 nM | Kd [21]: 6.17 nM | Kd [22]: 18.5 nM | Kd [23]: 7.14 nM | Kd [24]: 7.52 nM | Kd [25]: 11.4 nM | Kd [26]: 8.26 nM | inhibition [2]: 15% | Stereospecificity for (S)-(-)-nicotine ([27]; range over all 9 anti-nicotine McAb, versus R-(+)-nicotine): 5-45 fold | 50% inhibition ([27]; range over the 9 antibodies, each McAb diluted to give A490 1.0-1.2 without inhibitor): 0.091 to 0.51 ng | required for 50% inhibition [28]: 3.9 ng

O=NN1CCCC1c1cccnc1 (stereo not drawn) [N'-nitrosonornicotine]
Nanograms required for 50% inhibition [1, 29]: 6.5 Nanograms | inhibition (per cent in brackets) [2, 31]: 31% | Nanograms required for 50% inhibition [2, 30]: > 700 Nanograms

CCN1CCCC1c1cccnc1 (stereo not drawn) [N-ethylnornicotine]
inhibition (per cent in brackets) ([1]; at the 1,000 ng level): 44% | Nanograms required for 50% inhibition [1, 29]: > 1,000 Nanograms | Nanograms required for 50% inhibition [2, 30]: 5.4 Nanograms

c1cncc([C@@H]2CCCCN2)c1 [anabasine]
Nanograms required for 50% inhibition [1, 29]: 170 Nanograms | Nanograms required for 50% inhibition [2, 30]: 14.3 Nanograms

O=C1CCC(c2cccnc2)N1 (stereo not drawn) [desmethylcotinine]
fold more required for 50% inhibition compared to homologous hapten ([1]; ratio to (S)-(-)-cotinine): 13 fold | Nanograms required for 50% inhibition [1, 29]: 1.6 Nanograms | Nanograms required for 50% inhibition [2, 30]: 10,000 Nanograms

O=C(O)CCC(=O)c1cccnc1 [gamma-(3-pyridyl-gamma-oxobutyric acid]
Nanograms required for 50% inhibition [1, 29]: 410 Nanograms | Nanograms required for 50% inhibition [2, 30]: 1,920 Nanograms

c1cncc(C2=NCCC2)c1 [myosmine]
Nanograms required for 50% inhibition [1, 29]: 220 Nanograms | inhibition (per cent in brackets) [2, 31]: 13% | Nanograms required for 50% inhibition [2, 30]: > 700 Nanograms

C[N+]1([O-])CCCC1c1cccnc1 (stereo not drawn) [nicotine N'-oxide]
Nanograms required for 50% inhibition [1, 29]: 490 Nanograms | Nanograms required for 50% inhibition [2, 30]: 81.0 Nanograms

(-)-cotinine N'-oxide
Nanograms required for 50% inhibition [1, 29]: 4.6 Nanograms | inhibition (per cent in brackets) ([2]; at the 1,000 ng level): 0% | Nanograms required for 50% inhibition [2, 30]: > 1,000 Nanograms
